The numbers were not newly measured in patent EP1577823B1, “A method for identifying unknown proteins by a two-dimensional separation step and the use of markers” (CENTRE NATIONAL DE LA RECHERCHE SCIENTIFIQUE (CNRS), priority 2004, dated 2005), which cites them from elsewhere.

The conditions of the series: pKa value of the positively or negatively charged amino acid side chain.
For the compound `N=C(N)NCCC[C@H](N)C(=O)O` [Arginine], the pKR was 12,5.
In the case of `N[C@@H](CS)C(=O)O` [Cysteine], the pKR is given as 8,3.
Take `N[C@@H](CCC(=O)O)C(=O)O` [Glutamic acid]: the pKR is on record as 4,3.
On to `N[C@@H](Cc1c[nH]cn1)C(=O)O` [Histidine], for which the pKR is on record as 6.
Take `NCCCC[C@H](N)C(=O)O` [Lysine]: the pKR was 10,8.
As for `N[C@@H](CO)C(=O)O` [Serine], the pKR was 13.
In the case of `C[C@@H](O)[C@H](N)C(=O)O` [Threonine], the pKR is recorded as 13.
For the compound `N[C@@H](Cc1ccc(O)cc1)C(=O)O` [Tyrosine], the pKR is given as 10,1.
